Measured values from patent US10407735B2, “Schlap-1 ncRNA and uses thereof” (THE REGENTS OF THE UNIVERSITY OF MICHIGAN, priority 2010, dated 2019).

Legend:
[1] = system: PCAT-14 expression in VCaP and LNCaP cells; assay: Androgen treatment (R1881), ncRNA expression by qPCR; format: cell-based, human; details: 5 nM R1881, androgen responsive VCaP and LNCaP cells
From the text: The benign immortalized prostate cell line RWPE as well as PC3, Du145, LNCaP, VCaP, 22Rv1, CWR22, C4-2B, NCI-660, MDA PCa 2b, WPMY-1, and LAPC-4 prostate cell lines were obtained from the American Type Culture Collection (Manassas, Va.). Benign non-immortalized prostate epithelial cells (PrEC) and prostate smooth muscle cells (PrSMC) were obtained from Lonza (Basel, Switzerland). Cell lines were maintained using standard media and conditions. For androgen treatment experiments, LNCaP and VCaP cells were grown in androgen depleted media lacking phenol red and supplemented with 10% charcoal-stripped serum and 1% penicillin-streptomycin. After 48 hours, cells were treated with 5 nM methyltrienolone (R1881, NEN Life Science Products) or an equivalent volume of ethanol. Cells were harvested for RNA at 6, 24, and 48 hours post-treatment. Prostate tissues were obtained from the radical prostatectomy series and Rapid Autopsy Program at the University of Michigan tissue core. These programs are part of the University of Michigan Prostate Cancer Specialized Program Of Research Excellence (S.P.O.R.E.). […]
Quantitative Real-time PCR (qPCR) was performed using Power SYBR Green Mastermix (Applied Biosystems, Foster City, Calif.) on an Applied Biosystems 7900HT Real-Time PCR System. […] Fold changes were calculated relative to GAPDH and normalized to the median value of the benign samples.

[2] = system: MCF7 breast cancer cells
[3] = system: Du145 prostate cancer cells
[4] = system: RWPE benign prostate cells
[5] = system: LNCAP prostate cells

SMILES	PCAT-14 expression [1]	sensitivity to PARP1 inhibitor [2]	sensitivity to PARP1 inhibitor [3]	sensitivity to PARP1 inhibitor [4]	sensitivity to PARP1 inhibitor [5]
C[C@]1(O)CC[C@H]2[C@@H]3CCC4=CC(=O)CCC4=C3C=C[C@@]21C [R1881, methyltrienolone]	induced	–	–	–	–
C[C@]1(c2nc3c(C(N)=O)cccc3[nH]2)CCCN1 [ABT-888]	–	does not recapitulate this effect	increases sensitivity	increases sensitivity	reduces sensitivity
